Data as given in US20260232767A1, “INTERLEUKIN-23 RECEPTOR ANTAGONIST PEPTIDES FOR USE IN THE TREATMENT OF PSORIASIS” (Janssen Pharmaceutica NV, priority 2023, published 2026).

Tested on: subjects with moderate-to-severe plaque psoriasis
Assay: PSSD symptom and sign scores, Example 2
Assay type: in vivo, human
Conditions: for Change from Baseline in PSSD Sign Score, LSMean / Change from Baseline in PSSD Symptom Score, LSMean: MMRM

CC(=O)NCCCC[C@@H]1NC(=O)[C@H](Cc2c[nH]c3c(C)cccc23)NC(=O)[C@H]([C@@H](C)O)NC(=O)[C@H](CC(N)=O)NC(=O)[C@@H](NC(C)=O)C(C)(C)SSC(C)(C)[C@@H](C(=O)N[C@@H](Cc2ccc(OCCN)cc2)C(=O)N[C@@H](Cc2ccc3ccccc3c2)C(=O)NC2(C(=O)N[C@@H](CCC(=O)O)C(=O)N[C@@H](CC(N)=O)C(=O)N[C@@H](Cc3cccnc3)C(=O)N(C)CC(N)=O)CCOCC2)NC1=O [IL-23 receptor antagonist peptide, Ac-[Pen]*-N-T-[W(7-Me)]-[Lys(Ac)]-[Pen]*-Phe[4-(2-aminoethoxy)]-[2-Nal]-[THP]-E-N-[3-Pal]-Sarc-NH2 (*[Pen]-[Pen]* formdisulfidebond)]
Change from Baseline in PSSD Symptom Score, Mean (Week 32, 100 mg QD): −28.0
Change from Baseline in PSSD Symptom Score, Median (Week 32, 100 mg QD): −25.0
Subjects Achieving PSSD Sign Score 0 (%) (Week 32, 100 mg QD, Baseline Sign Score ≥1, N=43): (14.0%)
Subjects Achieving PSSD Symptom Score 0 (%) (Week 32, 100 mg QD, Baseline Symptom Score ≥1, N=43): (18.6%)
Change from Baseline in PSSD Sign Score, LSMean (Week 32, 100 mg QD): −45.8
Change from Baseline in PSSD Symptom Score, LSMean (Week 32, 100 mg QD): −36.4
Change from Baseline in PSSD Sign Score, Mean (Week 32, Placebo → 100 mg QD): −42.3
Change from Baseline in PSSD Sign Score, Median (Week 32, Placebo → 100 mg QD): −45.0
Change from Baseline in PSSD Symptom Score, Mean (Week 32, Placebo → 100 mg QD): −31.9
Change from Baseline in PSSD Symptom Score, Median (Week 32, Placebo → 100 mg QD): −36.0
Subjects Achieving PSSD Sign Score 0 (%) (Week 32, Placebo → 100 mg QD, Baseline Sign Score ≥1, crossed-over subjects only): (17.1%)
Subjects Achieving PSSD Symptom Score 0 (%) (Week 32, Placebo → 100 mg QD, Baseline Symptom Score ≥1, crossed-over subjects only): (20.0%)
Change from Baseline in PSSD Sign Score, LSMean (Week 32, Placebo → 100 mg QD): −41.8
Change from Baseline in PSSD Symptom Score, LSMean (Week 32, Placebo → 100 mg QD): −33.9
Change from Baseline in PSSD Sign Score, Mean (Week 40, 25 mg BID): −34.1
Change from Baseline in PSSD Sign Score, Median (Week 40, 25 mg BID): −34.0
Change from Baseline in PSSD Symptom Score, Mean (Week 40, 25 mg BID): −30.0
Change from Baseline in PSSD Symptom Score, Median (Week 40, 25 mg BID): −32.0
Subjects Achieving PSSD Sign Score 0 (%) (Week 40, 25 mg BID, Baseline Sign Score ≥1, N=41): (4.9%)
Subjects Achieving PSSD Symptom Score 0 (%) (Week 40, 25 mg BID, Baseline Symptom Score ≥1, N=41): (9.8%)
Change from Baseline in PSSD Sign Score, LSMean (Week 40, 25 mg BID): −34.9
Change from Baseline in PSSD Symptom Score, LSMean (Week 40, 25 mg BID): −30.5
Change from Baseline in PSSD Sign Score, Mean (Week 40, 25 mg QD): −36.9
Change from Baseline in PSSD Sign Score, Median (Week 40, 25 mg QD): −36.0
Change from Baseline in PSSD Symptom Score, Mean (Week 40, 25 mg QD): −33.9
Change from Baseline in PSSD Symptom Score, Median (Week 40, 25 mg QD): −35.0
Subjects Achieving PSSD Sign Score 0 (%) (Week 40, 25 mg QD, Baseline Sign Score ≥1, N=43): (11.6%)
Subjects Achieving PSSD Symptom Score 0 (%) (Week 40, 25 mg QD, Baseline Symptom Score ≥1, N=43): (20.9%)
Change from Baseline in PSSD Sign Score, LSMean (Week 40, 25 mg QD): −29.4
Change from Baseline in PSSD Symptom Score, LSMean (Week 40, 25 mg QD): −25.9
Change from Baseline in PSSD Sign Score, Mean (Week 40, 50 mg QD): −39.6
Change from Baseline in PSSD Sign Score, Median (Week 40, 50 mg QD): −42.0
Change from Baseline in PSSD Symptom Score, Mean (Week 40, 50 mg QD): −34.9
Change from Baseline in PSSD Symptom Score, Median (Week 40, 50 mg QD): −32.0
Subjects Achieving PSSD Sign Score 0 (%) (Week 40, 50 mg QD, Baseline Sign Score ≥1, N=43): (9.3%)
Subjects Achieving PSSD Symptom Score 0 (%) (Week 40, 50 mg QD, Baseline Symptom Score ≥1, N=42): (23.8%)
Change from Baseline in PSSD Sign Score, LSMean (Week 40, 50 mg QD): −39.5
Change from Baseline in PSSD Symptom Score, LSMean (Week 40, 50 mg QD): −32.7
Change from Baseline in PSSD Sign Score, Mean (Week 40, 100 mg BID): −52.4
Change from Baseline in PSSD Sign Score, Median (Week 40, 100 mg BID): −54.5
Change from Baseline in PSSD Symptom Score, Mean (Week 40, 100 mg BID): −47.5
Change from Baseline in PSSD Symptom Score, Median (Week 40, 100 mg BID): −49.5
Subjects Achieving PSSD Sign Score 0 (%) (Week 40, 100 mg BID, Baseline Sign Score ≥1, N=42): (19.0%)
Subjects Achieving PSSD Symptom Score 0 (%) (Week 40, 100 mg BID, Baseline Symptom Score ≥1, N=42): (28.6%)
Change from Baseline in PSSD Sign Score, LSMean (Week 40, 100 mg BID): −51.4
Change from Baseline in PSSD Symptom Score, LSMean (Week 40, 100 mg BID): −43.5
Change from Baseline in PSSD Sign Score, Mean (Week 40, 100 mg QD): −42.4
Change from Baseline in PSSD Sign Score, Median (Week 40, 100 mg QD): −43.0
Change from Baseline in PSSD Symptom Score, Mean (Week 40, 100 mg QD): −28.2
Change from Baseline in PSSD Symptom Score, Median (Week 40, 100 mg QD): −24.0
Subjects Achieving PSSD Sign Score 0 (%) (Week 40, 100 mg QD, Baseline Sign Score ≥1, N=43): (18.6%)
Subjects Achieving PSSD Symptom Score 0 (%) (Week 40, 100 mg QD, Baseline Symptom Score ≥1, N=43): (18.6%)
Change from Baseline in PSSD Sign Score, LSMean (Week 40, 100 mg QD): −45.6
Change from Baseline in PSSD Symptom Score, LSMean (Week 40, 100 mg QD): −36.1
Change from Baseline in PSSD Sign Score, Mean (Week 40, Placebo → 100 mg QD): −36.6
Change from Baseline in PSSD Sign Score, Median (Week 40, Placebo → 100 mg QD): −48.5
Change from Baseline in PSSD Symptom Score, Mean (Week 40, Placebo → 100 mg QD): −23.8
Change from Baseline in PSSD Symptom Score, Median (Week 40, Placebo → 100 mg QD): −24.0
Subjects Achieving PSSD Sign Score 0 (%) (Week 40, Placebo → 100 mg QD, Baseline Sign Score ≥1, crossed-over subjects only): (14.3%)
Subjects Achieving PSSD Symptom Score 0 (%) (Week 40, Placebo → 100 mg QD, Baseline Symptom Score ≥1, crossed-over subjects only): (25.7%)
Change from Baseline in PSSD Sign Score, LSMean (Week 40, Placebo → 100 mg QD): −36.9
Change from Baseline in PSSD Symptom Score, LSMean (Week 40, Placebo → 100 mg QD): −27.0
Change from Baseline in PSSD Sign Score, Mean (Week 52, 25 mg BID): −36.6
Change from Baseline in PSSD Sign Score, Median (Week 52, 25 mg BID): −38.5
Change from Baseline in PSSD Symptom Score, Mean (Week 52, 25 mg BID): −31.2
Change from Baseline in PSSD Symptom Score, Median (Week 52, 25 mg BID): −27.0
Subjects Achieving PSSD Sign Score 0 (%) (Week 52, 25 mg BID, Baseline Sign Score ≥1, N=41): (12.2%)
Subjects Achieving PSSD Symptom Score 0 (%) (Week 52, 25 mg BID, Baseline Symptom Score ≥1, N=41): (17.1%)
Change from Baseline in PSSD Sign Score, LSMean (Week 52, 25 mg BID): −37.2
Change from Baseline in PSSD Symptom Score, LSMean (Week 52, 25 mg BID): −31.4
Change from Baseline in PSSD Sign Score, Mean (Week 52, 25 mg QD): −35.2
Change from Baseline in PSSD Sign Score, Median (Week 52, 25 mg QD): −32.5
Change from Baseline in PSSD Symptom Score, Mean (Week 52, 25 mg QD): −30.1
Change from Baseline in PSSD Symptom Score, Median (Week 52, 25 mg QD): −35.0
Subjects Achieving PSSD Sign Score 0 (%) (Week 52, 25 mg QD, Baseline Sign Score ≥1, N=43): (16.3%)
Subjects Achieving PSSD Symptom Score 0 (%) (Week 52, 25 mg QD, Baseline Symptom Score ≥1, N=43): (18.6%)
Change from Baseline in PSSD Sign Score, LSMean (Week 52, 25 mg QD): −27.9
Change from Baseline in PSSD Symptom Score, LSMean (Week 52, 25 mg QD): −22.3
Change from Baseline in PSSD Sign Score, Mean (Week 52, 50 mg QD): −39.2
Change from Baseline in PSSD Sign Score, Median (Week 52, 50 mg QD): −45.0
Change from Baseline in PSSD Symptom Score, Mean (Week 52, 50 mg QD): −35.2
Change from Baseline in PSSD Symptom Score, Median (Week 52, 50 mg QD): −34.0
Subjects Achieving PSSD Sign Score 0 (%) (Week 52, 50 mg QD, Baseline Sign Score ≥1, N=43): (11.6%)
Subjects Achieving PSSD Symptom Score 0 (%) (Week 52, 50 mg QD, Baseline Symptom Score ≥1, N=42): (21.4%)
Change from Baseline in PSSD Sign Score, LSMean (Week 52, 50 mg QD): −39.0
Change from Baseline in PSSD Symptom Score, LSMean (Week 52, 50 mg QD): −33.0
Change from Baseline in PSSD Sign Score, Mean (Week 52, 100 mg BID): −53.1
Change from Baseline in PSSD Sign Score, Median (Week 52, 100 mg BID): −55.0
Change from Baseline in PSSD Symptom Score, Mean (Week 52, 100 mg BID): −47.7
Change from Baseline in PSSD Symptom Score, Median (Week 52, 100 mg BID): −53.0
Subjects Achieving PSSD Sign Score 0 (%) (Week 52, 100 mg BID, Baseline Sign Score ≥1, N=42): (16.7%)
Subjects Achieving PSSD Symptom Score 0 (%) (Week 52, 100 mg BID, Baseline Symptom Score ≥1, N=42): (26.2%)
Change from Baseline in PSSD Sign Score, LSMean (Week 52, 100 mg BID): −51.9
Change from Baseline in PSSD Symptom Score, LSMean (Week 52, 100 mg BID): −44.0
Change from Baseline in PSSD Sign Score, Mean (Week 52, 100 mg QD): −43.1
Change from Baseline in PSSD Sign Score, Median (Week 52, 100 mg QD): −43.0
Change from Baseline in PSSD Symptom Score, Mean (Week 52, 100 mg QD): −29.4
Change from Baseline in PSSD Symptom Score, Median (Week 52, 100 mg QD): −28.0
Subjects Achieving PSSD Sign Score 0 (%) (Week 52, 100 mg QD, Baseline Sign Score ≥1, N=43): (14.0%)
Subjects Achieving PSSD Symptom Score 0 (%) (Week 52, 100 mg QD, Baseline Symptom Score ≥1, N=43): (30.2%)
Change from Baseline in PSSD Sign Score, LSMean (Week 52, 100 mg QD): −45.8
Change from Baseline in PSSD Symptom Score, LSMean (Week 52, 100 mg QD): −36.5
Change from Baseline in PSSD Sign Score, Mean (Week 52, Placebo → 100 mg QD): −42.8
Change from Baseline in PSSD Sign Score, Median (Week 52, Placebo → 100 mg QD): −48.5
Change from Baseline in PSSD Symptom Score, Mean (Week 52, Placebo → 100 mg QD): −29.5
Change from Baseline in PSSD Symptom Score, Median (Week 52, Placebo → 100 mg QD): −30.0
Subjects Achieving PSSD Sign Score 0 (%) (Week 52, Placebo → 100 mg QD, Baseline Sign Score ≥1, crossed-over subjects only): (22.9%)
Subjects Achieving PSSD Symptom Score 0 (%) (Week 52, Placebo → 100 mg QD, Baseline Symptom Score ≥1, crossed-over subjects only): (34.3%)
Change from Baseline in PSSD Sign Score, LSMean (Week 52, Placebo → 100 mg QD): −43.1
Change from Baseline in PSSD Symptom Score, LSMean (Week 52, Placebo → 100 mg QD): −32.4
